Source: patent US20250011299A1, “PYRIDAZINYL AMINO DERIVATIVES AS ALK5 INHIBITORS” (CHIESI FARMACEUTICI S.P.A., priority 2021, published 2025)
Structures can show the parent of a compound that is named as a salt.

These compounds were tested against T1, human ALK5 (Homo sapiens, UniProt P36897) (assay: ADP-GLO Kinases assay of ALK5 enzymatic activity). Settings: purified recombinant human ALK5, TGFβ1 peptide substrate, pIC50 converted to pKi by Cheng-Prusoff, high ATP protocol (15 μM) for very potent compounds, 25° C.
T1 construct: human ALK5 (recombinant TGF β1 N-term GST-tagged, 80-end); GST (N); purchased
T1 sequence (P36897 80-503 limits assumed): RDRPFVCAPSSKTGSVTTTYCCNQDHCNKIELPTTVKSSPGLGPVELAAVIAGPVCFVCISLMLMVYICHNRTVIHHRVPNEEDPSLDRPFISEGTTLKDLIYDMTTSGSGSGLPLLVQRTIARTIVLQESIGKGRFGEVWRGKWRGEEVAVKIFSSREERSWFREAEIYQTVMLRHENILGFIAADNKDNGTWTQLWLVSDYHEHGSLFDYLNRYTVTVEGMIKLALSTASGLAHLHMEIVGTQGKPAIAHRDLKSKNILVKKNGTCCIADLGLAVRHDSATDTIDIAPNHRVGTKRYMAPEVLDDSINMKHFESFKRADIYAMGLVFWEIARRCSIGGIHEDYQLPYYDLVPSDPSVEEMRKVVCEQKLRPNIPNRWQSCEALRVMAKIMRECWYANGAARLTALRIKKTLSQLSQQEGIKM
Type: biochemical
Procedure: The enzymatic activity of compounds of the present invention was monitored measuring the formation of ADP using the ADP-GLO Kinases assay. Following the incubation of the purified enzyme, a substrate and ATP, the produced ADP was converted into ATP, which in turn was converted into light by Ultra-Glo Luciferase. The luminescent signal positively correlated with ADP amount and kinase activity. […] Compound and ALK5 kinase were mixed and incubated for 15 mins. […] After an incubation of 120 min, the reaction was stopped, and ADP production detected with ADP-Glo kit according to manufacturer's indications. […] After an incubation of 60 min, the kinase reaction was stopped, and ADP production detected with ADP-Glo kit according to manufacturer's indications. All reaction and incubation steps were performed at 25° C. and the assays were performed in 384-well format and validated using a selection of reference compounds tested in 11-point concentration-response curve. […] Results were expressed as pIC50 (negative logarithm of IC50) and subsequently converted to pKi (negative logarithm of […]) using the Cheng-Prusoff equation. The higher the value of pKi, the greater the inhibition of ALK5 activity.
A Ki of at most 0.1 nM was found for `COC(=O)C12CC(COc3nnc(-c4cc(Cl)ccc4F)cc3Nc3ccnc(NC(=O)[C@H]4C[C@@H](N5CCN(C)CC5)C4)c3)(C1)C2` [Example 126, Cis methyl 3-({[6-(5-chloro-2-fluorophenyl)-4-({2-[(1s,3s)-3-(4-methylpiperazin-1-yl)cyclobutaneamido]pyridin-4-yl}amino)pyridazin-3-yl]oxy}methyl)bicyclo[1.1.1]pentane-1-carboxylate] in this work. A Ki of at most 0.1 nM was found for `CN1CCN(CCC(=O)Nc2cc(Nc3cc(-c4cc(Cl)ccc4F)nnc3SCCCO)ccn2)CC1` [Example 28, N-(4-{[6-(5-chloro-2-fluorophenyl)-3-[(3-hydroxypropyl)sulfanyl]pyridazin-4-yl]amino}pyridin-2-yl)-3-(4-methylpiperazin-1-yl)propanamide] in this work. A Ki of 0.126 to 0.316 nM was found for `O=C(O)C1CCN([C@H]2C[C@@H](C(=O)Nc3cc(Nc4cc(-c5cc(Cl)ccc5F)nnc4SCCO)ccn3)C2)CC1` [Example 167, Cis 1-{3-[(4-{[6-(5-chloro-2-fluorophenyl)-3-[(2-hydroxyethyl)sulfanyl]pyridazin-4-yl]amino}pyridin-2-yl)carbamoyl]cyclobutyl}piperidine-4-carboxylic acid] in this work. A Ki of at most 0.1 nM was found for `CN1CCN(CCC(=O)Nc2cc(Nc3cc(-c4cc(Cl)ccc4F)nnc3OCCCS(C)(=O)=O)ccn2)CC1` [Example 7, N-(4-{[6-(5-chloro-2-fluorophenyl)-3-(3-methanesulfonylpropoxy)pyridazin-4-yl]amino}pyridin-2-yl)-3-(4-methylpiperazin-1-yl)propanamide] in this work. A Ki of at most 0.1 nM was found for `CN(C)CCOc1nnc(-c2cc(Cl)ccc2F)cc1Nc1ccnc(NC(=O)C2CC2)c1` [Example 38, N-(4-{[6-(5-chloro-2-fluorophenyl)-3-[2-(dimethylamino)ethoxy]pyridazin-4-yl]amino}pyridin-2-yl)cyclopropanecarboxamide] in this work. A Ki of at most 0.1 nM was found for `CN1CCN(CCOc2ccc3c(Nc4cc(-c5cc(Cl)ccc5F)nnc4OCC(F)(F)F)ccnc3c2)CC1` [Example 51, N-[6-(5-chloro-2-fluorophenyl)-3-(2,2,2-trifluoroethoxy)pyridazin-4-yl]-7-[2-(4-methylpiperazin-1-yl)ethoxy]quinolin-4-amine] in this work. A Ki of at most 0.1 nM was found for `CN1CCN([C@H]2C[C@@H](C(=O)Nc3cc(Nc4cc(-c5cc(Cl)ccc5F)nnc4SCCO)ccn3)C2)CC1CCF` (mixture of isomers) [Example 172, Cis N-(4-{[6-(5-chloro-2-fluorophenyl)-3-[(2-hydroxyethyl)sulfanyl]pyridazin-4-yl]amino}pyridin-2-yl)-3-[3-(2-fluoroethyl)-4-methylpiperazin-1-yl]cyclobutane-1-carboxamide] in this work. A Ki of at most 0.1 nM was found for `COC(=O)c1sc(Nc2cc(Nc3cc(-c4cc(Cl)ccc4F)nnc3SCCO)ccn2)cc1C1CCN(C)CC1` [Example 92, methyl 5-[(4-{[6-(5-chloro-2-fluorophenyl)-3-[(2-hydroxyethyl)sulfanyl]pyridazin-4-yl]amino}pyridin-2-yl)amino]-3-(1-methylpiperidin-4-yl)thiophene-2-carboxylate] in this work. A Ki of at most 0.1 nM was found for `CN1CC2(C1)CN(CC(=O)Nc1cc(Nc3cc(-c4cc(Cl)ccc4F)nnc3SCCO)ccn1)C2` [Example 24, N-(4-{[6-(5-chloro-2-fluorophenyl)-3-[(2-hydroxyethyl)sulfanyl]pyridazin-4-yl]amino}pyridin-2-yl)-2-{6-methyl-2,6-diazaspiro[3.3]heptan-2-yl}acetamide] in this work. A Ki of at most 0.1 nM was found for `COCCOc1nnc(-c2cc(Cl)ccc2F)cc1Nc1ccnc2cc(OCCN3CCN(C)CC3)ccc12` [Example 32, N-[6-(5-chloro-2-fluorophenyl)-3-(2-methoxyethoxy)pyridazin-4-yl]-7-[2-(4-methylpiperazin-1-yl)ethoxy]quinolin-4-amine] in this work. A Ki of at most 0.1 nM was found for `C[C@@H]1CN(CCC(=O)Nc2cc(Nc3cc(-c4cc(Cl)ccc4F)nnc3SCCO)ncn2)C[C@H](C)N1` [Example 177, N-(6-{[6-(5-chloro-2-fluorophenyl)-3-[(2-hydroxyethyl)sulfanyl]pyridazin-4-yl]amino}pyrimidin-4-yl)-3-(3,5-dimethylpiperazin-1-yl)propanamide] in this work. A Ki of at most 0.1 nM was found for `CN1CCN([C@H]2C[C@@H](C(=O)Nc3cc(Nc4cc(-c5cc(Cl)ccc5F)nnc4OCc4cccc(O)c4)ccn3)C2)CC1` [Example 119, Cis N-(4-{[6-(5-chloro-2-fluorophenyl)-3-[(3-hydroxyphenyl)methoxy]pyridazin-4-yl]amino}pyridin-2-yl)-3-(4-methylpiperazin-1-yl)cyclobutane-1-carboxamide] in this work. A Ki of at most 0.1 nM was found for `CN1CCCN(CC(=O)Nc2cc(Nc3cc(-c4cc(Cl)ccc4F)nnc3OC3CCOC3)ccn2)CC1` (single isomer, unassigned) [Example 73, N-(4-{[6-(5-chloro-2-fluorophenyl)-3-(oxolan-3-yloxy)pyridazin-4-yl]amino}pyridin-2-yl)-2-(4-methyl-1,4-diazepan-1-yl)acetamide] in this work. A Ki of at most 0.1 nM was found for `CN1CCN(CCC(=O)Nc2cc(Nc3cc(-c4cc(Cl)ccc4F)nnc3OCC3COC(=O)O3)ccn2)CC1` (stereo not drawn) [Example 79, N-(4-{[6-(5-chloro-2-fluorophenyl)-3-[(2-oxo-1,3-dioxolan-4-yl)methoxy]pyridazin-4-yl]amino}pyridin-2-yl)-3-(4-methylpiperazin-1-yl)propanamide] in this work. A Ki of at most 0.1 nM was found for `CSc1nnc(-c2cc(Cl)ccc2F)cc1Nc1ccnc(NC(=O)CCN2CCN(C)CC2)c1` [Example 16, N-(4-{[6-(5-chloro-2-fluorophenyl)-3-(methylsulfanyl)pyridazin-4-yl]amino}pyridin-2-yl)-3-(4-methylpiperazin-1-yl)propanamide] in this work. A Ki of at most 0.1 nM was found for `CS(=O)(=O)NCCOc1nnc(-c2cc(Cl)ccc2F)cc1Nc1ccnc(N)c1` [Example 45, N-[2-({4-[(2-aminopyridin-4-yl)amino]-6-(5-chloro-2-fluorophenyl)pyridazin-3-yl}oxy)ethyl]methanesulfonamide] in this work. A Ki of 0.398 to 3.16 nM was found for `CN(C)CCOc1nnc(-c2cc(Cl)ccc2F)cc1Nc1ccnc2[nH]ncc12` [Example 42, 6-(5-chloro-2-fluorophenyl)-3-[2-(dimethylamino)ethoxy]-N-{1H-pyrazolo[3,4-b]pyridin-4-yl}pyridazin-4-amine] in this work. A Ki of 0.126 to 0.316 nM was found for `CN1CCN(CCC(=O)Nc2cc(Nc3cc(-c4cc(Cl)ccc4F)nnc3N3CCO[C@@H](C(=O)O)C3)ccn2)CC1` (stereo in doubt) [Example 134, 4-[6-(5-chloro-2-fluorophenyl)-4-({2-[3-(4-methylpiperazin-1-yl)propanamido]pyridin-4-yl}amino)pyridazin-3-yl]morpholine-2-carboxylate lithium salt] in this work. A Ki of at most 0.1 nM was found for `COCC1(CN(C)c2nnc(-c3cc(Cl)ccc3F)cc2Nc2ccnc(NC(=O)CCN3CCN(C)CC3)c2)CCOC1=O` (single isomer, unassigned) [Example 201, N-(4-{[6-(5-chloro-2-fluorophenyl)-3-({[3-(methoxymethyl)-2-oxooxolan-3-yl]methyl}(methyl)amino)pyridazin-4-yl]amino}pyridin-2-yl)-3-(4-methylpiperazin-1-yl)propanamide] in this work. A Ki of at most 0.1 nM was found for `CN1CCN(CCC(=O)Nc2cc(Nc3cc(-c4cc(Cl)ccc4F)nnc3NCc3cccc(O)c3)ccn2)CC1` [Example 101, N-(4-{[6-(5-chloro-2-fluorophenyl)-3-{[(3-hydroxyphenyl)methyl]amino}pyridazin-4-yl]amino}pyridin-2-yl)-3-(4-methylpiperazin-1-yl)propanamide] in this work. A Ki of at most 0.1 nM was found for `COC(=O)C1CN(c2nnc(-c3cc(Cl)ccc3F)cc2Nc2ccnc(NC(=O)CN3C[C@@H]4C[C@H]3CN4C)c2)C1` [Example 109, methyl 1-[6-(5-chloro-2-fluorophenyl)-4-[(2-{2-[(1S,4S)-5-methyl-2,5-diazabicyclo[2.2.1]heptan-2-yl]acetamido}pyridin-4-yl)amino]pyridazin-3-yl]azetidine-3-carboxylate] in this work. A Ki of at most 0.1 nM was found for `CSc1nnc(-c2cc(Cl)ccc2F)cc1Nc1ccnc(NC(=O)CCN2CCNCC2)c1` [Example 62, N-(4-{[6-(5-chloro-2-fluorophenyl)-3-(methylsulfanyl)pyridazin-4-yl]amino}pyridin-2-yl)-3-(piperazin-1-yl)propanamide] in this work. A Ki of at most 0.1 nM was found for `CN1CCN([C@H]2C[C@H](C(=O)Nc3cc(Nc4cc(-c5cc(Cl)ccc5F)nnc4OC4CCOC4)ccn3)C2)CC1` (single isomer, unassigned) [Example 112, N-(4-{[6-(5-chloro-2-fluorophenyl)-3-(oxolan-3-yloxy)pyridazin-4-yl]amino}pyridin-2-yl)-3-(4-methylpiperazin-1-yl)cyclobutane-1-carboxamide] in this work. A Ki of at most 0.1 nM was found for `COCCOc1nnc(-c2cc(Cl)ccc2F)cc1Nc1ccnc(NC(=O)CCN2CCOCC2)c1` [Example 34, N-(4-{[6-(5-chloro-2-fluorophenyl)-3-(2-methoxyethoxy)pyridazin-4-yl]amino}pyridin-2-yl)-3-(morpholin-4-yl)propanamide] in this work.
